Where two headings read alike, the source gives them in different places. One block for each compound: values may come before it.
Experiments:
HeLa cells [1] = experiment: Apoptosis analysis (Annexin V/PI flow cytometry) in HeLa cells; assay type: cell-based, human; settings: 6 h-treatment
Description: Apoptosis analysis was performed by using a Vybrant Apoptosis Assay Kit #2 (Molecular Probes, Invitrogen Corporation, Carlsbad, CA, U.S.A.) according to the manufacturer’s instructions. Briefly, cells were seeded at 1.2 × 10^6 cells/4 ml in a 4.5-cm dish, incubated for 24 hours, and treated with different concentrations of the extracts or sinapinic acid for 6 hours. Cells were harvested by trypsinization, washed with cold PBS, and resuspended in the Annexin-binding buffer. Cell density was determined and diluted in the annexin-binding buffer to 10^5 cells per assay. Cells were incubated with Alexa Fluor 488 Annexin V and Propidium iodide (PI) at room temperature for 15 minutes. Following the incubation, cells were analyzed by flow cytometry using a Beckman Coulter Cytomics FC500 MPL flow cytometry (Beckman Coulter, Miami, FL, U.S.A.). The flow cytometry results were confirmed by viewing the cells under a fluorescence microscope.

[2] = target: HDAC enzymes (HeLa nuclear extract); experiment: In vitro HDAC inhibition activity assay (Fluor-de-Lys kit); assay type: biochemical, human
Description: HDAC inhibitory activity of the H. formicarum Jack. rhizome extracts, sinapinic acid (Sigma) and sodium butyrate (Sigma) was determined by using the Fluor-de-Lys HDAC activity assay kit (Biomol, Enzo Life Sciences International, Inc., Plymount Meeting, PA, U.S.A.). The assay was performed according to the manufacturer’s instructions. Fluorescence was measured using a spectra Max Gemini XPS microplate spectrofluorometer (Molecular Devices, Sunnyvale, CA, U.S.A.) with excitation at 360 nm and emission at 460 nm. Inhibition of HDAC activity was monitored by a decrease in fluorescence signal.
The effect of various polarity extracts including fractionated solvent extracts from hexane soluble fraction, ethyl acetate soluble fraction, methanol soluble fraction and also ethanolic crude extract on in vitro HDAC activity was examined by using HeLa nuclear extract as a source of the HDAC enzymes.

[3] = tested on: histone H4 acetylation in HeLa cells; experiment: HDAC inhibition in HeLa cells: histone acetylation by AUT gel electrophoresis; assay type: cell-based, human; settings: 6 h-treatment
Description: Cells grown in a 4.5-cm dish were treated with either solvent control or the sample for 6 hours, and the histone proteins were then isolated according to the Abcam’s protocol (Abcam Inc., Cambridge, MA, U.S.A.) with some modifications. In brief, cells were harvested by trypsinization, washed with PBS, and then resuspended in Triton Extraction Buffer (TEB; PBS containing 0.5% (v/v) Triton X-100, 2 mM phenylmethylsulfonyl fluoride, 0.02% (w/v) NaN3) at a cell density of 10^5 cells/ml. The cells were incubated on ice and agitated periodically for 10 minutes. The suspension was centrifuged at 7,500 rpm for 10 minutes at 4°C to spin down the nuclei and the supernatant was discarded. The nuclei pellet was resuspended in 0.2 M HCl at a density of 10^6 nuclei/ml and incubated overnight at 4°C. […] Protein concentration was measured by using a Bio-Rad protein assay kit (Bio-Rad Laboratories, Hercules, CA, U.S.A.) based on the Bradford method.
Inhibition on acetylation of cellular histones was analyzed by gel electrophoresis using acid urea/Triton-X-100 (AUT) gels. […]
HDAC inhibition by ethanolic crude extract, phenolic-rich extract and sinapinic acid in HeLa cells was analyzed by AUT gel electrophoresis, whereby each cellular core histone (H2A, H2B, H3, and H4) with different extent of acetylation can be separated. […]

Vero cells = experiment: Antiproliferative activity assay (WST-8), Vero cells; assay type: cell-based; settings: compounds
Description: (§1) Cells were seeded in a 96-well plate at cell density of 10^4 cells/well and incubated for 24 hours. Sample groups were treated with different concentrations of H. formicarum Jack. rhizome extracts (0.5-3.0 mg/mL), sinapinic acid (0.5-3.0 mM), or sodium butyrate (0.5-3.0 mM) for 24, 48 and 72 hours. Vehicle control groups were added with DMSO (final concentration of 0.05%) or double distilled water. Cell proliferation assays were performed using a WST-8 Cell Proliferation Assay Kit (BioVision, Mountain View, CA, U.S.A.) according to the manufacturer’s instructions. Absorbance (A) was measured at 415 nm using a microtiter plate reader (Bio-Rad Laboratories, Hercules, CA, U.S.A.). The absorbance at 655 nm was used as a reference wavelength. Cell proliferation or cell growth was determined as a percentage of the vehicle control by an equation of;
(§2) %CellProliferation=controlA‒sampleA/controlA×100.

HeLa cells [4] = experiment: Antiproliferative activity assay (WST-8), HeLa cells; assay type: cell-based, human; settings: compounds
Description: as §1, §2

HT29 cells = experiment: Antiproliferative activity assay (WST-8), HT29 cells; assay type: cell-based, human; settings: compounds
Description: as §1, §2

HCT116 cells = experiment: Antiproliferative activity assay (WST-8), HCT116 cells; assay type: cell-based, human; settings: compounds
Description: as §1, §2

MCF-7 cells = experiment: Antiproliferative activity assay (WST-8), MCF-7 cells; assay type: cell-based, human; settings: compounds
Description: as §1, §2

Jurkat cells = experiment: Antiproliferative activity assay (WST-8), Jurkat cells; assay type: cell-based, human; settings: compounds
Description: as §1, §2

[5] = 72 h, read-out: IC50 values, HeLa cells 72 h

SMILES: CC[C@@]1(O)C(=O)OCc2c1cc1n(c2=O)Cc2cc3ccccc3nc2-1 [Camptothecin]
Number of Late Apoptotic cells (%) (HeLa cells [1]; 0.1 mg/mL): 3.55 ± 1.06%

IC50 [2]: 2270 ± 130 µM
IC50 (HeLa cells [4]; Homo sapiens, HeLa, 24 h, 24 h, read-out: IC50 values, HeLa cells 24 h): 2350 ± 30 µM
IC50 (HeLa cells [4]; Homo sapiens, HeLa, 48 h, 48 h, read-out: IC50 values, HeLa cells 48 h): 2040 ± 60 µM
IC50 (HeLa cells [4]; Homo sapiens, HeLa, 72 h, 72 h, read-out: IC50 values, HeLa cells 72 h): 910 ± 20 µM
IC50 (HeLa cells [4]; [5]): 900 ± 20 µM
IC50 (HT29 cells; Homo sapiens, HT-29, 24 h, read-out: IC50 values, HT29 cells 24 h): 2970 ± 50 µM
IC50 (HT29 cells; Homo sapiens, HT-29, 48 h, read-out: IC50 values, HT29 cells 48 h): 2200 ± 30 µM
IC50 (HT29 cells; Homo sapiens, HT-29, 72 h, read-out: IC50 values, HT29 cells 72 h): 1600 ± 20 µM
IC50 (HCT116 cells; Homo sapiens, HCT-116, 24 h, read-out: IC50 values, HCT116 cells 24 h): > 3000 µM
IC50 (HCT116 cells; Homo sapiens, HCT-116, 48 h, read-out: IC50 values, HCT116 cells 48 h): 2200 ± 150 µM
IC50 (HCT116 cells; Homo sapiens, HCT-116, 72 h, read-out: IC50 values, HCT116 cells 72 h): 2100 ± 60 µM
IC50 (MCF-7 cells; Homo sapiens, MCF7, 24 h, read-out: IC50 values, MCF-7 cells 24 h): > 3000 µM
IC50 (MCF-7 cells; Homo sapiens, MCF7, 48 h, read-out: IC50 values, MCF-7 cells 48 h): > 3000 µM
IC50 (MCF-7 cells; Homo sapiens, MCF7, 72 h, read-out: IC50 values, MCF-7 cells 72 h): > 3000 µM
IC50 (Jurkat cells; Homo sapiens, Jurkat, 24 h, read-out: IC50 values, Jurkat cells 24 h): > 3000 µM
IC50 (Jurkat cells; Homo sapiens, Jurkat, 48 h, read-out: IC50 values, Jurkat cells 48 h): > 3000 µM
IC50 (Jurkat cells; Homo sapiens, Jurkat, 72 h, read-out: IC50 values, Jurkat cells 72 h): 2800 ± 120 µM
SMILES: COc1cc(/C=C/C(=O)O)cc(OC)c1O [Sinapinic acid, sinapinic acid]
Histone H4 acetylation in HeLa cells (in words) [3]: clearly increased di- and tri-acetylated H4 molecules
IC50 (Vero cells; Chlorocebus sabaeus, Vero, 24 h, read-out: IC50 values, Vero cells 24 h): > 3000 µM
IC50 (Vero cells; Chlorocebus sabaeus, Vero, 48 h, read-out: IC50 values, Vero cells 48 h): > 3000 µM
IC50 (Vero cells; Chlorocebus sabaeus, Vero, 72 h, read-out: IC50 values, Vero cells 72 h): > 3000 µM
Number of Early Apoptotic cells (%) (HeLa cells [1]; 4.5 mM): 4.40 ± 1.27%
Number of Late Apoptotic cells (%) (HeLa cells [1]; 4.5 mM): 1.75 ± 0.78%
Number of Early Apoptotic cells (%) (HeLa cells [1]; 9.0 mM): 8.40 ± 1.55%
Number of Late Apoptotic cells (%) (HeLa cells [1]; 9.0 mM): 3.25 ± 1.06%
Number of Early Apoptotic cells (%) (HeLa cells [1]; 9.0 mM, listed as sinapinic acid): 8.4%

IC50 [2]: 970 ± 70 µM
IC50 (HeLa cells [4]; 24 h, read-out: IC50 values, HeLa cells 24 h): 2630 ± 60 µM
IC50 (HeLa cells [4]; 48 h, read-out: IC50 values, HeLa cells 48 h): 2220 ± 130 µM
IC50 (HeLa cells [4]; 72 h, listed as sodium butyrate, read-out: IC50 values, HeLa cells 72 h): 1220 ± 30 µM
IC50 (HeLa cells [4]; [5]): 1200 ± 30 µM
IC50 (HT29 cells; 24 h, read-out: IC50 values, HT29 cells 24 h): > 3000 µM
IC50 (HT29 cells; 48 h, read-out: IC50 values, HT29 cells 48 h): > 3000 µM
IC50 (HT29 cells; 72 h, read-out: IC50 values, HT29 cells 72 h): 2570 ± 30 µM
IC50 (HCT116 cells; 24 h, read-out: IC50 values, HCT116 cells 24 h): > 3000 µM
IC50 (HCT116 cells; 48 h, read-out: IC50 values, HCT116 cells 48 h): 2200 ± 200 µM
IC50 (HCT116 cells; 72 h, read-out: IC50 values, HCT116 cells 72 h): 2000 ± 50 µM
IC50 (MCF-7 cells; 24 h, read-out: IC50 values, MCF-7 cells 24 h): > 3000 µM
IC50 (MCF-7 cells; 48 h, read-out: IC50 values, MCF-7 cells 48 h): > 3000 µM
IC50 (MCF-7 cells; 72 h, read-out: IC50 values, MCF-7 cells 72 h): > 3000 µM
IC50 (Jurkat cells; 24 h, read-out: IC50 values, Jurkat cells 24 h): > 3000 µM
IC50 (Jurkat cells; 48 h, read-out: IC50 values, Jurkat cells 48 h): 2360 ± 190 µM
IC50 (Jurkat cells; 72 h, read-out: IC50 values, Jurkat cells 72 h): 1500 ± 300 µM
SMILES: CCCC(=O)[O-].[Na+] [Sodium butyrate, sodium butyrate]
IC50 (Vero cells; 24 h, read-out: IC50 values, Vero cells 24 h): > 3000 µM
IC50 (Vero cells; 48 h, read-out: IC50 values, Vero cells 48 h): > 3000 µM
IC50 (Vero cells; 72 h, read-out: IC50 values, Vero cells 72 h): > 3000 µM
Number of Early Apoptotic cells (%) (HeLa cells [1]; 4.5 mM): 3.75 ± 1.06%
Number of Late Apoptotic cells (%) (HeLa cells [1]; 4.5 mM): 1.00 ± 0.28%
Number of Early Apoptotic cells (%) (HeLa cells [1]; 9.0 mM): 7.60 ± 1.27%
Number of Late Apoptotic cells (%) (HeLa cells [1]; 9.0 mM): 2.05 ± 1.06%
Number of Early Apoptotic cells (%) (HeLa cells [1]; 9.0 mM, listed as sodium butyrate): 7.6%
